Values joined by “and” are separate entries in the source; they are usually repeats but may differ in a detail not shown here. Identical values can stand only once. “Also recorded” adds a separate entry of the source. Counter-ions that a name gives are not always drawn.
Assays:
[1] = Local galantamine concentration within the stomach after a typical dose; details: following a typical 24 mg dose
ferret = assay: Emetic activity (retching and vomiting) in the ferret
[2] = tested on: rabbit stomach circular smooth muscle; assay: Ex vivo rabbit stomach circular smooth muscle, electrical field stimulation; type: cell-based; details: rabbit stomach strips under EFS; 100 nM to 100 μM
rat = assay: Comparative acute toxicity (rat behavior) of sc and po galantamine; type: in vivo; details: individual rats
[3] = tested on: human stomach circular smooth muscle; assay: Ex vivo human stomach circular smooth muscle, electrical field stimulation; type: cell-based; details: human stomach strips under EFS; 100 nM to 100 μM
Sprague Dawley rat = assay: PICA behavior (kaolin consumption) in the Sprague Dawley rat as surrogate for emesis; type: in vivo; details: for Cumulative mean ± SD kaolin consumption: 40 mg base/kg po
Experimental: This is a well established model for this purpose in the rat (Takeda N et al (1993) 45 817-21).
Once determined, a comparison was made of the effects of these doses on kaolin consumption over a 0-96 hour period in 24 h increments.
In detail groups of 10 male Sprague Dawley rats were habituated to kaolin for 3 days, then singly housed in grid-bottomed cages and habituated for a further 2 days prior to dosing. On the day of drug administration, the animals were food-deprived for 1 h prior to dosing. […] Access to a weighed quantity of food and kaolin was then restored. Food and kaolin was weighed 24, 48, 72 and 96 h after dosing.

[4] = 20 mg (free base)/kg oral or similar molar dose
[5] = 20 mg/kg p.o., 2 hr. observation, individual ferrets, listed as Galantamine HBr, hydrobromide

COc1ccc2c3c1O[C@H]1C[C@@H](O)C=C[C@@]31CCN(C)C2 [Galantamine, (4aS,6R,8aS)-4a,5,9,10,11,12-hexahydro-3-methoxy-11-methyl-6H-benzofuro[3a,3,2ef][2]benzazepin-6-ol hydrobromide]
Local concentrations within the stomach [1]: 200 to 400 µM
animals dosed that retched (ferret; [4]): 55%
animals dosed that vomited (ferret; [4]): 40%
Total number of individual incidences of: Retching (ferret; 20 mg/kg p.o. (galantamine free base content), 2 hr. observation, individual ferrets, listed as Galantamine HBr, hydrobromide): 21 and 29 and 18 and 0 (9×) and 31 and 3 (2×) and 6 and 2 and 5 and 13 and 22
Time (min) to onset of: Retching (ferret; [5]): 33 min and 3 min and 5 min (3×) and >120 min (8×) and 41 min and 11 min and 10 min and 7 min (2×) and 6 min (2×)
Time (min) to onset of: Vomiting (ferret; [5]): 33 min and 75 min and 5 min (2×) and >120 min (11×) and 37 min and 10 min and 13 min and 6 min and 41 min
Total number of individual incidences of: Vomiting (ferret; [5]): 4 (2×) and 1 (6×) and 0 (11×) and 2
stimulation of smooth muscle contractions (change in force production) [2]: evidence of a dose response
Effect on rat behavior (rat; 3.5 mg/kg sc, 2 min post dose, hydrobromide): Rat 1: purposeless chewing, mouth; also recorded: Rat 3: purposeless chewing, mouth
Effect on rat behavior (rat; 3.5 mg/kg sc, 5 min post-dose, hydrobromide): Rat 1: purposeless chewing, mouth movements,; also recorded: Rat 3: As per 2 min
Effect on rat behavior (rat; 3.5 mg/kg sc, 10 min post-dose, hydrobromide): Rat 1: Tremors, flattened rostral body; also recorded: Rat 3: purposeless chewing, mouth
Effect on rat behavior (rat; 3.5 mg/kg sc, 20 min post-dose, hydrobromide): Rat 1: Quiescent, flattened body posture,; also recorded: Rat 3: Some ambulation restored symptoms
Effect on rat behavior (rat; 3.5 mg/kg sc, 30 min post-dose, hydrobromide): Rat 1: Quiescent, flattened body posture,; also recorded: Rat 3: Some ambulation restored
Effect on rat behavior (rat; 3.5 mg/kg sc, 45 min post-dose): Rat 1: food consumption and more
Effect on rat behavior (rat; 3.5 mg/kg sc, 1 h, hydrobromide): Rat 1: Normal; also recorded: Rat 3: Normal
Effect on rat behavior (rat; 40 mg/kg po, 10 min post-dose, hydrobromide): Rat 6: Quiescent, purposeless; also recorded: Rat 7: Quiescent, purposeless chewing,
Effect on rat behavior (rat; 40 mg/kg po, 20 min post-dose, hydrobromide): Rate 6 as per 10 min + arching; also recorded: Rat 7: grooming + purposeless
Effect on rat behavior (rat; 40 mg/kg po, 30 min post-dose): Rat 6: quiescent, purposeless chewing,
Effect on rat behavior (rat; 40 mg/kg po, 45 min post-dose, hydrobromide): Rat 6: flattened body posture, chewing,; also recorded: Rat 7: grooming, sawdust consumption
Effect on rat behavior (rat; 40 mg/kg po, 1 h, hydrobromide): Rat 6: flattened body posture, tremor; also recorded: Rat 7: Grooming, sawdust
Effect on rat behavior (rat; 40 mg/kg po, 1.5 h, hydrobromide): Rat 7: quiet, falttened posture
Effect on rat behavior (rat; 40 mg/kg po, 2 h, hydrobromide): Rat 6: much improved; also recorded: Rat 7: much improved
Effect on rat behavior (rat; 40 mg/kg po, 3 h, hydrobromide): Rat 6: normal; also recorded: Rat 7: normal
stimulation of smooth muscle contractions (change in force production) [3]: evidence of a dose response
kaolin consumption compared with controls (in words) (Sprague Dawley rat; 3.5 mg/kg subcutaneous, over the whole 96 h period): no increase at all in kaolin consumption
Cumulative mean ± SD kaolin consumption (Sprague Dawley rat; 24 h): 2.73 ± 1.4 g
Cumulative mean ± SD kaolin consumption (Sprague Dawley rat; 48 h): 3.36 ± 1.68 g
Cumulative mean ± SD kaolin consumption (Sprague Dawley rat; 72 h): 4.07 ± 1.88 g
Cumulative mean ± SD kaolin consumption (Sprague Dawley rat; 96 h, hydrobromide): 4.69 ± 2.43 g
Cumulative mean ± SD kaolin consumption (Sprague Dawley rat; 96 h, listed as galantamine, hydrobromide): 4.69 ± 2.43 g
kaolin consumption / PICA behavior (in words) (Sprague Dawley rat; 40 mg/kg oral, over 96 h, hydrobromide): significantly higher; also recorded: marked PICA behavior
rat kaolin consumption (g) over 24 h post-dose (Sprague Dawley rat; single oral dose 40 mg base/kg, Mean): 1.79 g
rat kaolin consumption (g) over 24 h post-dose (Sprague Dawley rat; single oral dose 40 mg base/kg, individual rats 1-10, hydrobromide): 1.06 g and 0.35 g and 0.02 g and 3.14 g and 4.47 g and 1.62 g and 0.16 g and 2.93 g and 3.11 g and 1.03 g
rat kaolin consumption (g) over 24 h post-dose (Sprague Dawley rat; single subcutaneous dose of 3.5 mg base/kg, Mean (rat 7 omitted as outlier)): 0.25 g
rat kaolin consumption (g) over 24 h post-dose (Sprague Dawley rat; single subcutaneous dose of 3.5 mg base/kg, individual rats 1-10, hydrobromide): 0.67 g and 0.36 g and 0.88 g and 0.08 g and *1.57 g and 0.00 g (3×) and 0.21 g and 0.05 g

Source: US20110098278A1 (priority 2009, published 2011)
